Results: US8178506B2, “Oligomeric compounds and compositions for use in modulation of small non-coding RNAs” (Regulus Therapeutics Inc., priority 2003, dated 2012)
In the oligonucleotide strings, read from the 5' end, every base follows the letter of its sugar. An asterisk marks phosphorothioate; unmarked linkages are phosphodiester. Other units and linkages are bracketed, terminal groups are in braces. A string of capitals states the bases alone. e = 2'-O-(2-methoxyethyl) (MOE); [5mC] = 5-methylcytosine; d = 2'-deoxy (DNA)

Columns and labels:
Type in all cases: cell-based, human
Glut4 = Glut4 mRNA expression in adipocytes (real-time PCR)
Method: (§1) Expression of the four hallmark genes, HSL, aP2, Glut4, and PPARγ, is also measured in adipocytes transfected with oligomeric compounds of the invention. Cells are lysed on day nine post-transfection and total RNA is harvested. The amount of total RNA in each sample is determined using a Ribogreen Assay (Invitrogen Life Technologies, Carlsbad, Calif.).
(§2) For assaying adipocyte differentiation, expression of the four hallmark genes, HSL, aP2, Glut4, and PPARγ, as well as triglyceride (TG) accumulation and leptin secretion were measured in adipocytes transfected with the uniform 2′-MOE phosphorothioate (PS) oligomeric compounds previously described. Cells are lysed on day nine post-transfection, in a guanadinium-containing buffer and total RNA is harvested. Real-time PCR is performed (Applied Biosystems, Prism 7700) on the total RNA using the following primer/probe sets for the adipocyte differentiation hallmark genes: (aP2): forward 5′-GGTGGTGGAATGCGTCATG-3′ (SEQ ID NO: 746), reverse 5′-[…]-3′ (SEQ ID NO: 747), probe 5′-FAM-[…]-TAMRA-3′ (SEQ ID NO: 748); (Glut4): forward 5′-GGCCTCCGCAGGTTCTG-3′ (SEQ ID NO: 749), reverse 5′-[…]-3′ (SEQ ID NO: 750), probe 5′-FAM-[…]-TAMRA-3′ (SEQ ID NO: 751); (HSL): forward 5′-ACCTGCGCACAATGACACA-3′ (SEQ ID NO: 752), reverse 5′-[…]-3′ (SEQ ID NO: 753), probe 5′-FAM-[…]-TAMRA-3′ (SEQ ID NO: 754); (PPAR-γ): forward 5′-[…]-3′ (SEQ ID NO: 755), reverse 5′-[…]-3′ (SEQ ID NO: 756), probe 5′-FAM-[…]-TAMRA-3′ (SEQ ID NO: 757). The amount of total RNA in each sample is determined using a Ribogreen Assay (Molecular Probes, Eugene, Oreg.), and expression levels of the adipocyte differentiation hallmark genes were normalized to total RNA.

PPARγ = PPARγ mRNA expression in adipocytes (real-time PCR)
Method: as §1, §2

aP2 = aP2 mRNA expression in adipocytes (real-time PCR); conditions: for aP2 mRNA: Table 75
Method: as §1, §2

adipocytes = experiment: Triglyceride accumulation assay in adipocytes
Method: The triglyceride accumulation assay measures the synthesis of triglyceride by adipocytes. Triglyceride accumulation is measured using the Infinity™ Triglyceride reagent kit (Sigma-Aldrich, St. Louis, Mo.). On day nine post-transfection, cells are washed and lysed at room temperature, and the triglyceride assay reagent is added. Triglyceride accumulation is measured based on the amount of glycerol liberated from triglycerides by the enzyme lipoprotein lipase. Liberated glycerol is phosphorylated by glycerol kinase, and hydrogen peroxide is generated during the oxidation of glycerol-1-phosphate to dihydroxyacetone phosphate by glycerol phosphate oxidase. Horseradish peroxidase (HRP) uses H2O2 to oxidize 4-aminoantipyrine and 3,5 dichloro-2-hydroxybenzene sulfonate to produce a red-colored dye. Dye absorbance, which is proportional to the concentration of glycerol, is measured at 515 nm using an UV spectrophotometer. Glycerol concentration is calculated from a standard curve for each assay, and data are normalized to total cellular protein as determined by a Bradford assay (Bio-Rad Laboratories, Hercules, Calif.).
An increase in triglyceride content is another well-established marker for adipocyte differentiation. The triglyceride accumulation assay measures the synthesis of triglyceride by adipocytes. Triglyceride accumulation was measured using the Infinity™ Triglyceride reagent kit (Sigma-Aldrich, St. Louis, Mo.). Human white preadipocytes (Zen-Bio Inc., Research Triangle Park, N.C.) were grown in preadipocyte media (ZenBio Inc.). One day before transfection, 96-well plates were seeded with 3000 cells/well. Cells were transfected according to standard published procedures with 250 nM oligomeric compound in LIPOFECTIN™ (Invitrogen Corporation, Carlsbad, Calif.) (Monia et al., J. Biol. Chem. 1993 268(19):14514-22). Oligomeric compounds were tested in triplicate on each 96-well plate, and the effects of TNF-α, a positive drug control that inhibits adipocyte differentiation, were also measured in triplicate. Negative and transfectant-only controls may be measured up to six times per plate. After the cells have reached confluence (approximately three days), they were exposed to differentiation media (Zen-Bio, Inc.) containing a PPAR-γ agonist, IBMX, dexamethasone, and insulin for three days. Cells were then fed adipocyte media (Zen-Bio, Inc.), which was replaced at 2 to 3 day intervals. […] Triglyceride accumulation was measured based on the amount of glycerol liberated from triglycerides by the enzyme lipoprotein lipase. Liberated glycerol is phosphorylated by glycerol kinase, and hydrogen peroxide is generated during the oxidation of glycerol-1-phosphate to dihydroxyacetone phosphate by glycerol phosphate oxidase. Horseradish peroxidase (HRP) uses H2O2 to oxidize 4-aminoantipyrine and 3,5 dichloro-2-hydroxybenzene sulfonate to produce a red-colored dye. Dye absorbance, which is proportional to the concentration of glycerol, was measured at 515 nm using an UV spectrophotometer. Glycerol concentration was calculated from a standard curve for each assay, and data were normalized to total cellular protein as determined by a Bradford assay (Bio-Rad Laboratories, Hercules, Calif.). Results are expressed as a percent±standard deviation relative to transfectant-only control.

HSL = HSL mRNA expression in adipocytes (real-time PCR)
Method: as §1, §2

[1] = differentiating adipocytes transfected with oligomeric compound, Table 75
[2] = differentiating adipocytes transfected with oligomeric compound
[3] = Table 17, differentiating adipocytes, control = treatment with ISIS 342673
[4] = Table 18, differentiating adipocytes, control = treatment with ISIS 342673

Row | Substance | GLUT4 mRNA (Glut4; [1]) | PPAR gamma mRNA (PPARγ; [1]) | aP2 mRNA (aP2; [2]) | TG (triglyceride accumulation) (adipocytes; [1]) | HSL mRNA (HSL; [1]) | other results
1 | 341798 (antisense GCAUUAUUACUCACGGUACGA; all 2'-MOE, all phosphorothioate, methylation of C and T or U not given here) [compound 341798] | 55 percentage of untreated control (UTC) | 70 percentage of untreated control (UTC) | 84 percentage of untreated control (UTC) | 62 percentage of untreated control (UTC) | 77 percentage of untreated control (UTC) | –
2 | TNF-alpha | – | – | – | – | – | GLUT4 mRNA (Glut4; [3]): 0.5 percentage of control; GLUT4 mRNA (Glut4; [4]): 1.9 percentage of control; PPAR gamma mRNA (PPARγ; [3]): 18.8 percentage of control; PPAR gamma mRNA (PPARγ; [4]): 27.9 percentage of control; AP2 mRNA (aP2; [3]): 5.5 percentage of control; AP2 mRNA (aP2; [4]): 9.6 percentage of control; TG (triglyceride accumulation) (adipocytes; [3]): 10.0 percentage of control; TG (triglyceride accumulation) (adipocytes; [4]): 14.5 percentage of control; HSL mRNA (HSL; [3]): 0.7 percentage of control; HSL mRNA (HSL; [4]): 3.1 percentage of control
3 | 328126 (antisense e[5mC]*e[5mC]*eA*eA*eG*eT*eG*eT*eT*eA*eG*eA*eG*e[5mC]*eA*eA*eG*eA*eT*e[5mC]*eA) [compound 328126] | 107 percentage of untreated control (UTC) | 98 percentage of untreated control (UTC) | 120 percentage of untreated control (UTC) | 108 percentage of untreated control (UTC) | 135 percentage of untreated control (UTC) | GLUT4 mRNA (Glut4; [3]): 100.7 percentage of control; PPAR gamma mRNA (PPARγ; [3]): 75.0 percentage of control; AP2 mRNA (aP2; [3]): 90.9 percentage of control; TG (triglyceride accumulation) (adipocytes; [3]): 98.9 percentage of control; HSL mRNA (HSL; [3]): 83.2 percentage of control
4 | 328340 (eT*eA*eA*eT*eA*dT*dA*dT*dA*dT*dT*dT*d[5mC]*dA*d[5mC]*eT*eA*e[5mC]*eG*e[5mC]) [compound 328340] | – | – | – | – | – | GLUT4 mRNA (Glut4; [2]): 112 percentage of untreated control (UTC); PPAR gamma mRNA (PPARγ; [2]): 110 percentage of untreated control (UTC); AP2 mRNA (aP2; [2]): 85 percentage of untreated control (UTC); TG (triglyceride accumulation) (adipocytes; [2]): 76 percentage of untreated control (UTC); HSL mRNA (HSL; [2]): 130 percentage of untreated control (UTC)
5 | 344338 (antisense AUGCCCUUUUAACAUUGCACUG; all 2'-MOE, all phosphorothioate, methylation of C and T or U not given here) [compound 344338] | 66 percentage of untreated control (UTC) | 91 percentage of untreated control (UTC) | 86 percentage of untreated control (UTC) | 103 percentage of untreated control (UTC) | 89 percentage of untreated control (UTC) | –
6 | 346686 (CUUCAGUUAUCACAGUACUGUA; all 2'-MOE, all phosphorothioate, methylation of C and T or U not given here) [compound 346686] | 73 percentage of untreated control (UTC) | 83 percentage of untreated control (UTC) | 83 percentage of untreated control (UTC) | 73 percentage of untreated control (UTC) | 80 percentage of untreated control (UTC) | –
7 | 346909 (UCACCAAAACAUGGAAGCACUUA; all 2'-MOE, all phosphorothioate, methylation of C and T or U not given here) [compound 346909] | 64 percentage of untreated control (UTC) | 77 percentage of untreated control (UTC) | 68 percentage of untreated control (UTC) | 66 percentage of untreated control (UTC) | 64 percentage of untreated control (UTC) | –
8 | 327972 (antisense eA*e[5mC]*eT*e[5mC]*eA*e[5mC]*e[5mC]*eG*eA*e[5mC]*eA*eG*eG*eT*eT*eG*eA*eA*eT*eG*eT*eT) [compound 327972] | 75 percentage of untreated control (UTC) | 85 percentage of untreated control (UTC) | 70 percentage of untreated control (UTC) | 67 percentage of untreated control (UTC) | 70 percentage of untreated control (UTC) | –
9 | 328100 (antisense eA*eA*eT*e[5mC]*eT*e[5mC]*eT*eG*e[5mC]*eA*eG*eG*e[5mC]*eA*eA*eA*eT*eG*eT*eG*eA) [compound 328100] | 39 percentage of untreated control (UTC) | 48 percentage of untreated control (UTC) | 47 percentage of untreated control (UTC) | 20 percentage of untreated control (UTC) | 49 percentage of untreated control (UTC) | GLUT4 mRNA (Glut4; [4]): 74.2 percentage of control; PPAR gamma mRNA (PPARγ; [4]): 66.7 percentage of control; AP2 mRNA (aP2; [4]): 61.9 percentage of control; TG (triglyceride accumulation) (adipocytes; [4]): 71.5 percentage of control; HSL mRNA (HSL; [4]): 72.0 percentage of control
